Columns and labels:
[1] = human, in vivo; cited from earlier work
HIV = details: cited from earlier work
Anti-(D2)2 [2] = assay: Specificity of the lopinavir immunoassay (cross-reactivity); assay type: binding, rabbit; details: crossreactant 10 μg/mL + 5 μg/mL Lopinavir in human serum
Experimental: An immunoassay for lopinavir was conducted on the Cobas Mira Chemistry Analyzer (Roche). […] The specificity of the immunoassay was evaluated by adding potentially crossreactant drugs to human serum and determining the increase in the apparent concentration as a result of the presence of crossreactant. […] Each sample was assayed in duplicate. Testing was performed on the Cobas Mira analyzer. The percentage concentration above 5 μg/mL of lopinavir was calculated for each crossreactant.

[3] = human; cited from earlier work
Anti-(D2)2 [4] = assay: Homogeneous enzyme immunoassay for lopinavir, standard curve; assay type: binding, rabbit; details: Enzyme Conjugate (D2)/G6PDH Reagent
Source text: Enzyme Conjugate (D2)/G6PDH and Antibody Anti-(D2)2 were selected as exemplary materials for the development of a homogeneous enzyme immunoassay for the anti-HIV therapeutic lopinavir. Enzyme Conjugate (D2)/G6PDH Reagent, as described in Example 45, was used. Also antibody Anti-(D2)2 was used in this Example as part of an antibody reagent (“Anti-(D2)2 Antibody Reagent”) further comprising nicotinamide adenine dinucleotide, glucose-6-phosphate, sodium chloride, bulking agent, surfactant, and preservatives.
An immunoassay for lopinavir was conducted on the Cobas Mira Chemistry Analyzer (Roche). On the analyzer, 4 μL of sample plus 61 μL water were incubated for 300 sec with 150 μL of Anti-(D2)2 Antibody Reagent. Subsequently, 75 μL of the Enzyme Conjugate (D2)/G6PDH Reagent was added. After 25 sec incubation, enzyme activity was monitored by following the production of NADH spectrophotometrically at 340 nm for 50 sec.
A series of known concentrations of lopinavir standards (ranging from 0 to 10 μg/mL) were prepared gravimetrically in MES (2-(N-Morpholino)ethanesulfonic acid, 0.01 M, pH 5.5) formulated with EDTA, protein additive, detergent, antiform agent, and preservative. Similarly, quality control samples were prepared (1.0 and 5.0 μg/mL).
Lopinavir was dissolved in methanol to give a stock solution of 1000 μg/mL. Synthetic buffered calibrator matrix 10 mL aliquots were spiked to give lopinavir standards with concentrations shown in Table 4. A series of Anti-(D2)2 Antibody Reagents were prepared by adding antibody to antibody/substrate diluent. Each antibody/substrate reagent was assayed with Enzyme Conjugate (D2)/G6PDH Reagent. Calibration curves were generated on the Cobas Mira by assaying each level in duplicate.

[5] = rats or dogs; cited from earlier work
[6] = rat, dog, and human primary hepatocytes; cited from earlier work

Row | SMILES | Metabolite identified in urine [1] [%] | Percent Increase in Apparent Lopinavir Conc. above 5 μg/mL (Anti-(D2)2 [2]) [%] | also measured
1 | Cc1cc(OC2OC(C(=O)O)C(O)C(O)C2O)nc2c1NC(=O)c1cccnc1N2C1CC1 (stereo not shown) [2-hydroxynevirapine glucuronide] | 18.6 | – | –
2 | Cc1c(OC2OC(C(=O)O)C(O)C(O)C2O)cnc2c1NC(=O)c1cccnc1N2C1CC1 (stereo not shown) [3-hydroxynevirapine glucuronide] | 25.7 | – | –
3 | Cc1c(O)cnc2c1NC(=O)c1cccnc1N2C1CC1 [3-hydroxynevirapine] | 1.2 | – | –
4 | COc1c(O)ccc(C(=O)N[C@@H](CSc2ccccc2)[C@H](O)CN2C[C@H]3CCCC[C@H]3C[C@H]2C(=O)NC(C)(C)C)c1C [3′-methoxy-4′-hydroxynelfinavir] | – | – | EC50 relative to nelfinavir (HIV): fivefold higher
5 | O=C1Nc2c(C(=O)O)ccnc2N(C2CC2)c2ncccc21 [4-carboxy-nevirapine] | 2.4 | – | –
6 | Cc1ccnc2c1NC(=O)c1cc(OC3OC(C(=O)O)C(O)C(O)C3O)cnc1N2C1CC1 (stereo not shown) [8-hydroxynevirapine glucuronide] | 1.3 | – | –
7 | O=C1Nc2c(COC3OC(C(=O)O)C(O)C(O)C3O)ccnc2N(C2CC2)c2ncccc21 (stereo not shown) [12-hydroxynevirapine glucuronide] | 23.7 | – | –
8 | O=C1Nc2c(CO)ccnc2N(C2CC2)c2ncccc21 [12-hydroxynevirapine] | 0.6 | – | –
9 | CC(C)CN(C[C@@H](O)[C@H](Cc1ccccc1)NC(=O)O[C@H]1CCOC1)S(=O)(=O)c1ccc(N)cc1 [Amprenavir, amprenavir] | – | 1 | –
10 | O=C1Nc2ccc(Cl)cc2[C@@](C#CC2CC2)(C(F)(F)F)O1 [Efavirenz, efavirenz] | – | 0 | –
11 | CC(C)(C)NC(=O)[C@@H]1CN(Cc2cccnc2)CCN1C[C@@H](O)C[C@@H](Cc1ccccc1)C(=O)N[C@H]1c2ccccc2C[C@H]1O [Indinavir, indinavir] | – | 0 | –
12 | Cc1cccc(C)c1OCC(=O)N[C@@H](Cc1ccccc1)[C@@H](O)C[C@H](Cc1ccccc1)NC(=O)[C@H](C(C)C)N1CCCNC1=O [Lopinavir, lopinavir] | – | – | Metabolism by liver microsomes [3]: metabolized very extensively and rapidly; Reaction Rate (Anti-(D2)2 [4]; Lopinavir 0.5 μg/mL): 311.1 mA/min; Reaction Rate (Anti-(D2)2 [4]; Lopinavir 1.0 μg/mL): 338.9 mA/min; Reaction Rate (Anti-(D2)2 [4]; Lopinavir 2.5 μg/mL): 390.7 mA/min; Reaction Rate (Anti-(D2)2 [4]; Lopinavir 5.0 μg/mL): 427.0 mA/min; Reaction Rate (Anti-(D2)2 [4]; Lopinavir 10.0 μg/mL): 457.1 mA/min
13 | Cc1c(O)cccc1C(=O)N[C@@H](CSc1ccccc1)[C@H](O)CN1C[C@H]2CCCC[C@H]2C[C@H]1C(=O)NC(C)(C)C [Nelfinavir, nelfinavir] | – | 1 | –
14 | CC(C)c1nc(CN(C)C(=O)N[C@H](C(=O)N[C@@H](Cc2ccccc2)C[C@H](O)[C@H](Cc2ccccc2)NC(=O)OCc2cncs2)C(C)C)cs1 [Ritonavir, ritonavir] | – | 0 | –
15 | CC(C)(C)NC(=O)[C@@H]1C[C@@H]2CCCC[C@@H]2CN1C[C@@H](O)[C@H](Cc1ccccc1)NC(=O)[C@H](CC(N)=O)NC(=O)c1ccc2ccccc2n1 [Saquinavir, saquinavir] | – | 1 | –
16 | Cc1ccnc2c1NC(=O)c1cccnc1N2C1CC1 [nevirapine] | – | – | Fraction of the dose excreted in urine as parent compound [1]: 2.7%; Mean plasma elimination half-life, NVP [1]: 20.0 h; Parent compound share of circulating radioactivity [1]: 75%
17 | CCC[C@@]1(CCc2ccccc2)CC(O)=C([C@H](CC)c2cccc(NS(=O)(=O)c3ccc(C(F)(F)F)cn3)c2)C(=O)O1 [tipranavir] | – | – | Plasma metabolic profile [5]: only the parent drug; Metabolic stability in hepatocyte incubations [6]: stable

Source: patent publication US20090068719A1, “IMMUNOASSAYS, HAPTENS, IMMUNOGENS AND ANTIBODIES FOR ANTI-HIV THERAPEUTICS” (priority 2003, published 2009)
